Results published in US20080170990A1, “Methods for Myocardial Imaging in Patients Having a History of Pulmonary Disease” (CV THERAPEUTICS, INC., priority 2006, published 2008).

Assays:
[1] = test system: AMP-sensitive subjects with mild or moderate asthma; assay: Double-blind placebo-controlled cross-over study of pulmonary function in AMP-sensitive asthma (Examples 9, 11); format: in vivo, human
Procedure: The primary objective was to compare the incidence of bronchoconstrictive reactions, defined as reduction from baseline in FEV1 of >15% within 2 hours following an intravenous (iv) bolus of 400 micrograms of Regadenoson or matching placebo.
Men or women ≧18 years of age with a diagnosis of mild or moderate asthma as documented by clinical history and pulmonary function test were considered for inclusion. The target was to enrolled 48 evaluable subjects: 24 mild and 24 moderate asthma subjects. […] Patients were not permitted short-acting bronchodilators for >6 hours and long-acting bronchodilators and methylxanthines for >24 hours prior to AMP, Regadenoson, or placebo.
AMP (adenosine 5′-monophosphate sodium salt) was used as an indirect bronchoconstrictor stimulus to select a group of susceptible subjects with adenosine-mediated bronchial hyperreactivity. A standard clinical protocol utilized by the investigative site for the inhalation of AMP for the purpose of provoking a bronchoconstrictor response in the airways was adopted for screening of all subjects. On arrival in the unit, subjects were required to rest for 15 minutes before assessment of lung function at baseline, measured as the best of 3 technically acceptable recordings of FEV1 taken at 1-minute intervals. Subject inhaled a series of five breaths of saline as control, followed by a breath of each increasing concentration of AMP at 3-minute intervals. Two measurements of FEV1 were to be made 90 and 150 seconds after each saline inhalation. The highest FEV1 value was to be recorded. Unless a fall in FEV1 of >10% from the baseline value was observed, subjects then inhaled increasing doubling concentrations of AMP (starting at 0.39 mg/mL) until a ≧20% decrease of FEV1 from the post-saline value was recorded. FEV1 was to be recorded at 90 and 150 seconds after each concentration was administered.
Subjects received 400 μg Regadenoson or placebo administered as an intravenous (iv) bolus in a double-blind cross-over design. Repeated measurements of FEV1 as an assessment of bronchoconstriction were performed before and for up to 2 hours after study drug administration.
Two similar randomized, double-blind, placebo (PLC)-controlled crossover trials were conducted, one in asthmatics with a positive adenosine monophosphate (AMP) challenge (a validated marker of airway inflammation) and one in patients with moderate or several chronic obstructive pulmonary disease (COPD). In both studies, short-acting bronchodilators were held prior to and for the 120 minute time frame study drug treatment during which spirometry was repeatedly assessed.

[2] = test system: patients undergoing a clinically indicated coronary catheterization; assay: Coronary blood flow velocity (CBFv) by Doppler flow wire after IV bolus, open label study (Example 1); format: in vivo, human
Procedure: The purpose of this open label study was to determine the magnitude and duration of effect of Regadenoson (10-500 μg) on CBFv in humans.
Patients undergoing a clinically indicated coronary catheterization with no more than a 70% stenosis in any coronary artery and no more than a 50% stenosis of the study vessel had CBFv determined by Doppler flow wire. Study subjects were selected after measuring baseline and peak CBFv after an intracoronary (IC) injection of 18 μg of Ado. Twenty-three patients, who were identified as meeting the study criteria of having a peak to baseline CBFv ration of ≧2.5 in response to Adenosine, received a rapid (≦10 sec) peripheral IV bolus of Regadenoson; Doppler signals were stable and interpretable over the time-course of the increase in CBFv in 17 patients.

[3] = test system: awake dogs; assay: Blood flow in coronary, mesenteric, hind limb and renal vascular beds (Example 8); format: in vivo, dog
Source text: In this study the vasodilator effects of Regadenoson were compared to those of ADO in different vascular beds in awake dogs. Dogs were chronically instrumented for measurements of the blood flow in coronary (CBF), mesenteric (MBF), hind limb (LBF), and renal (RBF) vascular beds, and hemodynamics.

[4] = test system: subjects undergoing pharmacologic stress MPI; assay: Adverse effects and hemodynamics in pharmacologic stress myocardial perfusion imaging protocol (Example 7); format: in vivo, human
Source text: 36 subjects (27 men, 9 women; 67±10 years) were studied with two doses of Regadenoson [400 mcg (n=18), 500 mcg (n=18)], administered as an IV bolus, as part of a pharmacologic stress myocardial perfusion imaging protocol.

[5] = test system: COPD patients; conditions: both, human, in vivo
Source text: COPD patients were selected from two phase III randomized, triple-blind, placebo-controlled, multicenter studies (N=2,015) designed to test the strength of agreement for reversible cardiac defects between ADO and REG. There were 35 patients in the ADO group and 69 in the Regadenoson group. Age and gender were similar between ADO (68=11 yrs; 77% male) and Regadenoson group (68±11 yrs; 81% male). Of the 35 patients, 5 suffered (14%) cardiac symptoms in the ADO group vs 3/69 (4%) in the Regadenoson group (p=0.12); 14/35 (40%) in the ADO vs. 20/69 (29%) in the Regadenoson group resorted respiratory symptoms (p=0.28). Angina, occurrence of second degree AV block, acute pulmonary oedema and ronchi were higher in ADO group; nausea, GI discomfort and headache occurred more often in the Regadenoson group.

[6] = 400 or 500 mcg IV bolus, 36 subjects

Structure (SMILES): CNC(=O)c1cnn(-c2nc(N)c3ncn([C@@H]4O[C@H](CO)[C@@H](O)[C@H]4O)c3n2)c1 [Regadenoson, (1-{9-[(4S,2R,3R,5R)-3,4-dihydroxy-5-(hydroxymethyl)oxolan-2-yl]-6-aminopurin-2-yl}pyrazol-4-yl)-N-methylcarboxamide]
- incidence of chest discomfort ([1]; 400 μg iv bolus): 21%
- incidence of dizziness ([1]; 400 μg iv bolus): 53%
- incidence of dyspnea ([1]; 400 μg iv bolus): 34%
- incidence of flushing ([1]; 400 μg iv bolus): 32%
- incidence of headache ([1]; 400 μg iv bolus): 45%
- incidence of nausea ([1]; 400 μg iv bolus): 19%
- incidence of paraesthesia ([1]; 400 μg iv bolus): 19%
- incidence of tachycardia ([1]; 400 μg iv bolus): 66%
- time for HR to return to within 5 bpm of baseline ([1]; 400 μg iv bolus): ≤ 60 min
- maximum increase in HR ([1]; 400 μg iv bolus, compared with placebo): +10.4 bpm
- incidence of adverse events ([1]; 400 μg iv bolus, placebo 8%): 98%
- incidence of dyspnea following REG ([1]; asthma study): 34%
- Number of patients with FEV1 decline by >20% over 120 min ([1]; asthma study N=48): 1 REG, 0 PLC
- Number of patients with FEV1 decline by >30% over 120 min ([1]; asthma study N=48): 1 REG, 0 PLC
- Number of patients with use of acute oxygen or short-acting bronchodilators ([1]; asthma study N=48): 0 REG, 0 PLC
- mean FEV1, all post-bolus time points combined ([1]; asthma study N=48, p = 0.17 vs PLC): 3.33 (0.9)L REG
- Number of patients with FEV1 decline by >15% over 120 min ([1]; asthma study N=48, p = 0.99): 2 REG, 2 PLC
- subjects with bronchoconstriction (FEV1 reduction >15% within 2 hours) ([1]; mild asthma (n=24), 400 μg iv bolus): None
- number of subjects having bronchoconstriction (FEV1 reduction >15% within 2 hours) ([1]; moderate asthma (n=24), 400 μg iv bolus): 2
- maximal decrease in systolic BP ([2]; 500 μg IV bolus): 8.7±7.6
- maximal increase in HR ([2]; 500 μg IV bolus): 18.7±4.0
- adverse events (AEs) ([2]; 3 patients receiving the 500 μg dose): No AEs
- adverse events (AEs) ([2]; 10-500 μg IV bolus, nausea, flushing, headache, mild and self-limited): infrequent
- peak to baseline CBFv ratio ([2]; Regadenoson 100, 300 and 500 μg IV bolus, mean ±SD): 3.2±0.6
- potency relative to adenosine in increasing coronary blood flow velocity (CBFv) ([3]; awake dogs): > 100 fold
- increase in hind limb blood flow (LBF) ([3]; mean ±SE, n=6, FIG. 18): smaller increase in LBF than ADO
- incidence of dizziness ([4]; 400-mcg group): 11%
- incidence of dyspnea ([4]; 400-mcg group): 17%
- incidence of flushing ([4]; 400-mcg group): 17%
- mean change in HR response ([4]; 400 mcg dose): 34.8%
- patients with adverse effects (AE) [4, 6]: 72%
- patients with adverse effects (AE), number [4, 6]: 26 pts
- incidence of dizziness ([4]; 500-mcg group): 28%
- incidence of dyspnea ([4]; 500-mcg group): 44%
- incidence of flushing ([4]; 500-mcg group): 44%
- mean change in HR response ([4]; 500 mcg dose): 44.2%
- incidence of abdominal pain ([4]; both doses): 11%
- incidence of chest discomfort ([4]; both doses): 33%
- incidence of headache ([4]; both doses): 25%
- lowest systolic BP (did not fall below) ([4]; either dose): ≥ 90 mmHg
- serious AE ([4]; exacerbation of a migraine headache, required hospitalization): One serious AE occurred
- AEs resolved within 15 min without treatment ([4]; in vivo): 91%
- AEs that were mild to moderate ([4]; in vivo): 96%
- AV block and arrhythmias ([4]; in vivo): No 2nd or 3rd degree AV block was noted and there were no serious arrhythmias
- patients developing ST abnormalities ([4]; in vivo): 7 pts
- patients developing T wave abnormalities ([4]; in vivo): 5 pts
- time of peak hemodynamic effect, diastolic BP ([4]; in vivo): 8 min
- time of peak hemodynamic effect, heart rate ([4]; in vivo): ≤ 2 min
- time of peak hemodynamic effect, systolic BP ([4]; in vivo): 4 min
- Diastolic BP, Absolute Change (peak) ([4]; mean ±S.D., 400 and 500 mcg): −5.4 ± 7.2 mmHg
- Diastolic BP, Relative Change (peak) ([4]; mean ±S.D., 400 and 500 mcg): −7.9% ± 10.5%
- Heart Rate, Absolute Change (peak) ([4]; mean ±S.D., 400 and 500 mcg): +21.9 ± 10.4 beats per min
- Heart Rate, Relative Change (peak) ([4]; mean ±S.D., 400 and 500 mcg): +36.7% + 21.0%
- Systolic BP, Absolute Change (peak) ([4]; mean ±S.D., 400 and 500 mcg): −5.9 ± 10.7 mmHg
- Systolic BP, Relative Change (peak) ([4]; mean ±S.D., 400 and 500 mcg): −4.1% ± 7.6%
- BP deviation from baseline ([4]; thirty min after Regadenoson): < 2%
- HR above baseline ([4]; thirty min after Regadenoson): 8.6%
- patients with cardiac symptoms [5]: 4%
- patients with cardiac symptoms, number [5]: 3/69
- patients with respiratory symptoms [5]: 29%
- patients with respiratory symptoms, number [5]: 20/69
